This assay concerns NSG host mice. In words: xGVHD model with SHP1/2 inhibitor-treated TEFF cells (Example 16). Type of assay: in vivo. Particulars: for Tbet+: engrafted human T cells; for Tbet+ / TNF-α / Absolute no. of Foxp3+ T cells expressing IFN-γ / Absolute no. of Foxp3+ T cells expressing IL-2 / Absolute no. of Foxp3+ T cells expressing TNF-α / Absolute no. of Foxp3− T cells expressing IL-2 / Absolute no. of Foxp3− T cells expressing TNF-α: TEFF & PDL1-LV transduced T cells; for Post LPS survival (%): human TEFF cells + monos + TPDL1, inhibitor treatment of Teff 100 μM, LPS day 5; for TNF-α: serum 120 min after LPS; for Absolute no. of Foxp3+ T cells expressing IFN-γ / Absolute no. of Foxp3+ T cells expressing IL-2 / Absolute no. of Foxp3+ T cells expressing TNF-α / Absolute no. of Foxp3− T cells expressing IL-2 / Absolute no. of Foxp3− T cells expressing TNF-α / Absolute no. of Foxp3− T cells expressing IFN-γ: spleen day 6, PMA/ionomycin; for Absolute no. of Foxp3− T cells expressing IFN-γ: TEFF (inhibitor-treated ex vivo where labelled) & PDL1-LV transduced T cells. The source says:
Because PD1 receptor signaling occurs via SHP1/2, it was next hypothesized that ex vivo pharmacologic inhibition of this pathway using prevanadate and NSC87877 might also generate TEFF cells (TEFFShp1/2^in) resistant to the tolerizing effect of PDL1. NSG host mice received a combination of human Th1 cells (either unmodified, pervanadate-treated, or NSC87877-treated) and PDL1-LV transduced T cells. At day 6, absolute numbers of human T cells engrafted in the spleen were enumerated. Splenocyes were stimulated (PMA/ionomycin) and the absolute number of Foxp3-negative T cells expressing IFN-γ (i), IL-2 (ii), and TNF-α (iii) were quantified; conversely, […]
Recipients were challenged with LPS and serum was harvested 120 min later for measurement of TNF-α. Absolute numbers of engrafted human T cells expressing T-bet were quantified.
Cohorts of host mice received the human cell inocula specified, followed by LPS administration on day 5 post-transfer for assessment of lethal cytokine-mediated xGVHD.

Consider pervanadate, for which the “Tbet+” value is ~2.0 ×10^3, the “Post LPS survival (%)” value is 33%, the TNF-α is approximately 0.37 µg/mL and the “Absolute no. of Foxp3+ T cells expressing IFN-γ” value is reported as “~.3 ×10^3”. Further, the “Absolute no. of Foxp3+ T cells expressing IL-2” value was ~1.3 ×10^3, the “Absolute no. of Foxp3+ T cells expressing TNF-α” value is on record as ~0.4 ×10^3, the “Absolute no. of Foxp3− T cells expressing IL-2” value was ~2 ×10^3 and the “Absolute no. of Foxp3− T cells expressing TNF-α” value is ~3.9 ×10^3. The “Absolute no. of Foxp3− T cells expressing IFN-γ” value was ~1.5 ×10^3.
Take `O=S(=O)(O)c1ccc2cc(N=Nc3cc(S(=O)(=O)O)c4cccnc4c3O)ccc2c1` [NSC87877]: the “Tbet+” value is listed as ~2.7 ×10^3, the “Post LPS survival (%)” value was found to be 0%, the TNF-α was approximately 0.42 µg/mL and the “Absolute no. of Foxp3+ T cells expressing IFN-γ” value is ~0.1 ×10^3. For the same molecule, the “Absolute no. of Foxp3+ T cells expressing IL-2” value was ~1.4 ×10^3, the “Absolute no. of Foxp3+ T cells expressing TNF-α” value is given as ~1.3 ×10^3, the “Absolute no. of Foxp3− T cells expressing IL-2” value is given as ~2.6 ×10^3 and the “Absolute no. of Foxp3− T cells expressing TNF-α” value is given as ~6.0 ×10^3. The “Absolute no. of Foxp3− T cells expressing IFN-γ” value is recorded as ~1.1 ×10^3.

These data come from patent US20120251514A1, “MODULATED PROGRAMMED DEATH LIGAND-1” (University Health Network, priority 2009, published 2012).
